Data as given in PubChem BioAssay (NCI).
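GI50: concentration for 50% inhibition of growth. The concentration for full growth arrest is given as TGI.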

How the values were obtained:
Experiment in all cases: growth of human tumour cells (NCI), 384-well format
786-0 renal = test system: 786-0 renal
A498 renal = test system: A498 renal
A549 NSCLC = test system: A549 NSCLC
ACHN renal = test system: ACHN renal
BT-549 breast = test system: BT-549 breast
CAKI-1 renal = test system: CAKI-1 renal
CCRF-CEM leukemia = test system: CCRF-CEM leukemia
COLO 205 colon = test system: COLO 205 colon
DU-145 prostate = test system: DU-145 prostate
EKVX NSCLC = test system: EKVX NSCLC
HCC-2998 colon = test system: HCC-2998 colon
HCT-116 colon = test system: HCT-116 colon
HCT-15 colon = test system: HCT-15 colon
HL-60(TB) leukemia = test system: HL-60(TB) leukemia
HOP-62 NSCLC = test system: HOP-62 NSCLC
HOP-92 NSCLC = test system: HOP-92 NSCLC
HS 578T breast = test system: HS 578T breast
HT29 colon = test system: HT29 colon
IGROV1 ovarian = test system: IGROV1 ovarian
K-562 leukemia = test system: K-562 leukemia
KM12 colon = test system: KM12 colon
LOX IMVI melanoma = test system: LOX IMVI melanoma
M14 melanoma = test system: M14 melanoma
MALME-3M melanoma = test system: MALME-3M melanoma
MCF7 breast = test system: MCF7 breast
MDA-MB-435 melanoma = test system: MDA-MB-435 melanoma
MDA-MB-468 breast = test system: MDA-MB-468 breast
MOLT-4 leukemia = test system: MOLT-4 leukemia
NCI-H226 lung = test system: NCI-H226 lung
NCI-H23 lung = test system: NCI-H23 lung
NCI-H322M lung = test system: NCI-H322M lung
NCI-H460 NSCLC = test system: NCI-H460 NSCLC
NCI-H522 lung = test system: NCI-H522 lung
NCI/ADR-RES ovarian = test system: NCI/ADR-RES ovarian
OVCAR-3 ovarian = test system: OVCAR-3 ovarian
OVCAR-4 ovarian = test system: OVCAR-4 ovarian
OVCAR-8 ovarian = test system: OVCAR-8 ovarian
PC-3 prostate = test system: PC-3 prostate
RPMI-8226 leukemia = test system: RPMI-8226 leukemia
RXF 393 renal = test system: RXF 393 renal
SF-268 CNS = test system: SF-268 CNS
SF-295 CNS = test system: SF-295 CNS
SF-539 CNS = test system: SF-539 CNS
SK-MEL-2 melanoma = test system: SK-MEL-2 melanoma
SK-MEL-28 melanoma = test system: SK-MEL-28 melanoma
SK-MEL-5 melanoma = test system: SK-MEL-5 melanoma
SK-OV-3 ovarian = test system: SK-OV-3 ovarian
SN12C renal = test system: SN12C renal
SNB-19 CNS = test system: SNB-19 CNS
SNB-75 CNS = test system: SNB-75 CNS
SW-620 colon = test system: SW-620 colon
TK-10 renal = test system: TK-10 renal
U251 glioblastoma = test system: U251 glioblastoma
UACC-257 melanoma = test system: UACC-257 melanoma
UACC-62 melanoma = test system: UACC-62 melanoma

With `O=C(Nc1cccc(Br)c1)Oc1ccc(Cl)c2cccnc12` the GI50 ([…]-0 renal) was 14.3 µM, the TGI (786-0 renal) was 27.5 µM and the GI50 (A498 renal) was 4.23 µM. It also gave a TGI (A498 renal) of 13.1 µM, a GI50 (A549 NSCLC) of 11 µM and a TGI (A549 NSCLC) of 23.8 µM. It also gave a GI50 (ACHN renal) of 3.98 µM, a TGI (ACHN renal) of 15 µM and a GI50 (BT-549 breast) of 3.75 µM. For the same compound, the TGI (BT-549 breast) was 15.4 µM, the GI50 (CAKI-1 renal) was 2.61 µM and the TGI (CAKI-1 renal) was 6.82 µM. It also gave a GI50 (CCRF-CEM leukemia) of 1.6 µM, a TGI (CCRF-CEM leukemia) of 3.01 µM and a GI50 (COLO 205 colon) of 4.37 µM. For the same compound, the TGI (COLO 205 colon) was 12.1 µM, the GI50 (DU-145 prostate) was 4.76 µM and the TGI (DU-145 prostate) was 19.7 µM. It also gave a GI50 (EKVX NSCLC) of 2.6 µM, a TGI (EKVX NSCLC) of 5.8 µM and a GI50 (HCC-2998 colon) of 15.4 µM. The TGI (HCC-2998 colon) was 28.9 µM, the GI50 (HCT-116 colon) was 2.02 µM and the TGI (HCT-116 colon) was 3.77 µM. It also gave a GI50 (HCT-15 colon) of 3.74 µM, a TGI (HCT-15 colon) of 10.6 µM and a GI50 (HL-60(TB) leukemia) of 0.42 µM. It also gave a TGI (HL-60(TB) leukemia) of 1.42 µM, a GI50 (HOP-62 NSCLC) of 3.43 µM and a TGI (HOP-62 NSCLC) of 6.55 µM. It also gave a GI50 (HOP-92 NSCLC) of 3.59 µM, a TGI (HOP-92 NSCLC) of 9.38 µM and a GI50 (HS 578T breast) of 5.86 µM. The TGI (HS 578T breast) was 18.9 µM, the GI50 (HT29 colon) was 14.4 µM and the TGI (HT29 colon) was 27.6 µM. For the same compound, the GI50 (IGROV1 ovarian) was 1.49 µM, the TGI (IGROV1 ovarian) was 3.35 µM and the GI50 (K-562 leukemia) was 13.5 µM. It also gave a TGI (K-562 leukemia) of 27 µM, a GI50 (KM12 colon) of 7.59 µM and a TGI (KM12 colon) of 19.7 µM. For the same compound, the GI50 (LOX IMVI melanoma) was 3.36 µM, the TGI (LOX IMVI melanoma) was 12.3 µM and the GI50 (M14 melanoma) was 2.68 µM. For the same compound, the TGI (M14 melanoma) was 6.58 µM, the GI50 (MALME-3M melanoma) was 2.79 µM and the TGI (MALME-3M melanoma) was 7.77 µM. The GI50 (MCF7 breast) was 2.04 µM, the TGI (MCF7 breast) was 4.28 µM and the GI50 (MDA-MB-435 melanoma) was 5.71 µM. It also gave a TGI (MDA-MB-435 melanoma) of 19.1 µM, a GI50 (MDA-MB-468 breast) of 2.54 µM and a TGI (MDA-MB-468 breast) of 4.16 µM. It also gave a GI50 (MOLT-4 leukemia) of 1.73 µM, a TGI (MOLT-4 leukemia) of 3.16 µM and a GI50 (NCI-H226 lung) of 1.62 µM. For the same compound, the TGI (NCI-H226 lung) was 3.12 µM, the GI50 (NCI-H23 lung) was 1.98 µM and the TGI (NCI-H23 lung) was 3.91 µM. For the same compound, the GI50 (NCI-H322M lung) was 15.3 µM, the TGI (NCI-H322M lung) was 31.4 µM and the GI50 (NCI-H460 NSCLC) was 3.22 µM. It also gave a TGI (NCI-H460 NSCLC) of 9.1 µM, a GI50 (NCI-H522 lung) of 2.01 µM and a TGI (NCI-H522 lung) of 4.04 µM. It also gave a GI50 (NCI/ADR-RES ovarian) of 2.57 µM, a TGI (NCI/ADR-RES ovarian) of 4.9 µM and a GI50 (OVCAR-3 ovarian) of 1.91 µM. The TGI (OVCAR-3 ovarian) was 3.64 µM, the GI50 (OVCAR-4 ovarian) was 4.88 µM and the TGI (OVCAR-4 ovarian) was 15.9 µM. For the same compound, the GI50 (OVCAR-8 ovarian) was 2.29 µM, the TGI (OVCAR-8 ovarian) was 4.86 µM and the GI50 (PC-3 prostate) was 2.37 µM. The TGI (PC-3 prostate) was 5.64 µM, the GI50 (RPMI-8226 leukemia) was 1.65 µM and the TGI (RPMI-8226 leukemia) was 3.08 µM. It also gave a GI50 (RXF 393 renal) of 2.63 µM, a TGI (RXF 393 renal) of 9.07 µM and a GI50 (SF-268 CNS) of 3.33 µM. It also gave a TGI (SF-268 CNS) of 12.1 µM, a GI50 (SF-295 CNS) of 4.71 µM and a TGI (SF-295 CNS) of 16.3 µM. For the same compound, the GI50 (SF-539 CNS) was 3.26 µM, the TGI (SF-539 CNS) was 10.4 µM and the GI50 (SK-MEL-2 melanoma) was 2.39 µM. It also gave a TGI (SK-MEL-2 melanoma) of 4.87 µM, a GI50 (SK-MEL-28 melanoma) of 3.5 µM and a TGI (SK-MEL-28 melanoma) of 9.22 µM. It also gave a GI50 (SK-MEL-5 melanoma) of 2.01 µM, a TGI (SK-MEL-5 melanoma) of 4.53 µM and a GI50 (SK-OV-3 ovarian) of 15.4 µM. The TGI (SK-OV-3 ovarian) was 28.9 µM, the GI50 (SN12C renal) was 3.56 µM and the TGI (SN12C renal) was 14.9 µM. For the same compound, the GI50 (SNB-19 CNS) was 4.2 µM, the TGI (SNB-19 CNS) was 15.4 µM and the GI50 (SNB-75 CNS) was 2.96 µM. The TGI (SNB-75 CNS) was 8.36 µM, the GI50 (SW-620 colon) was 4.45 µM and the TGI (SW-620 colon) was 13.8 µM. For the same compound, the GI50 (TK-10 renal) was 18.5 µM, the TGI (TK-10 renal) was 47.4 µM and the GI50 (U251 glioblastoma) was 3.9 µM. The TGI (U251 glioblastoma) was 11.2 µM, the GI50 (UACC-257 melanoma) was 2.6 µM and the TGI (UACC-257 melanoma) was 4.37 µM. It also gave a GI50 (UACC-62 melanoma) of 3.73 µM and a TGI (UACC-62 melanoma) of 10.8 µM.
